In PMC8126888 (RSC Medicinal Chemistry, 2020):
Where two headings read alike, the source gives them in different places.

Assays:
[1] = test system: primary peritoneal mouse macrophages (PMM); conditions: PMM IC50 / L. infantum IC50
[2] = in vitro; conditions: Swiss, mouse
[3] = in vitro; conditions: human, microsomes, human liver microsomes
[4] = in vitro; conditions: mouse, microsomes, mouse liver microsomes
[5] = physchem; conditions: HPLC, Ascentis Express RP Amide column, pH 7.4, eLogD
[6] = in vitro; conditions: human
[7] = in vitro; conditions: PAMPA
[8] = test system: Leishmania infantum MHOM/MA(BE)/67/ITMAP263 intracellular amastigotes; test: microbe, parasite or virus in culture; conditions: Macrophage, in Mus musculus
[9] = test system: Trypanosoma cruzi, Tulahuen CL2, beta-galactosidase strain; test: microbe, parasite or virus in culture
[10] = test system: primary peritoneal mouse macrophages (PMM); test: cells; conditions: Macrophage, read-out: PMM IC50 (uM)
[11] = in vitro; conditions: human, THP-1 cells differentiated with PMA
[12] = in vitro; conditions: human, HFF-1 cells
[13] = in vitro; conditions: human, HepG2 cells
[14] = in vitro; conditions: PAMPA; remark: listed apart in the source
[15] = test system: Leishmania infantum (MHOM/MA/67/ITMAP-263) intracellular amastigotes in THP-1; test: microbe, parasite or virus in culture; conditions: THP-1, read-out: L. infantum MHOM/MA/67/ITMAP263 intracellular amastigotes THP-1 cells IC50 (uM)
[16] = read-out: L. Inf. pIC50, from L. infantum intracellular amastigote IC50 (converted)
[17] = read-out: L. infantum MHOM/MA(BE)/67/ITMAP263 intracellular amastigotes IC50
[18] = MRC5, read-out: T. cruzi Tulahuen C4 (LacZ) IC50
[19] = read-out: L. infantum MHOM/MA(BE)/67/ITMAP263 intracellular amastigotes IC50 (uM), intracellular amastigotes
[20] = MRC5, read-out: T. cruzi Tulahuen C4 (LacZ) IC50 (uM)

Compound	SI (vs PMM) [1]	IC50 [2]	microsomal CLint at 0.5 μM ([3]; pH 7.4, HLM CLint)	microsomal CLint at 0.5 μM ([4]; pH 7.4, MLM CLint)	chromatographic logD [5]	CC50 at 3 days [6]	Papp [7]	IC50 [8, 16]	IC50 [8, 17]	IC50 [9, 18]	further results
CCN(Cc1ccccc1)S(=O)(=O)c1ccccc1OC(F)(F)F [DNDI0003364252]	8	> 64 µM	1180 µL/min/mg	2340 µL/min/mg	4.5	> 64 µM	1.18 ×10⁻⁶ cm/s	8.51 µM	8.47 µM	22.4 µM	–
CCC(Cc1ccccc1)[S+]([O-])c1nc(C)cc(C)c1C#N (stereo not shown) [DNDI0003297458]	1	> 64 µM	1230 µL/min/mg	1560 µL/min/mg	3.2	> 64 µM	13.4 ×10⁻⁶ cm/s	47.9 µM	47.6 µM	> 64 µM	–
COc1ccc(OC)c(S(=O)(=O)N(Cc2ccccc2)Cc2ccccc2)c1 [DNDI0003292440]	–	> 64 µM	242 µL/min/mg	1300 µL/min/mg	–	45.2 µM	0.43 ×10⁻⁶ cm/s	0.372 µM	0.36 µM	5.71 µM	–
CC[C@H](Cc1ccccc1)S(=O)(=O)c1ccccc1OC [DNDI0003362003]	2	> 64 µM	458 µL/min/mg	1060 µL/min/mg	3.5	> 64 µM	19.8 ×10⁻⁶ cm/s	34.7 µM	34.6 µM	31.7 µM	–
CCN(Cc1ccccc1)S(=O)(=O)c1ccccc1C#N [DNDI0002574585]	2	> 64 µM	306 µL/min/mg	1060 µL/min/mg	3.5	> 64 µM	16.6 ×10⁻⁶ cm/s	25.7 µM	25.6 µM	29.3 µM	–
CCCCC(=O)Nc1cccnc1S(=O)(=O)CCc1ccccc1 [DNDI0003363561]	1	> 64 µM	–	–	3.9	> 64 µM	18.9 ×10⁻⁶ cm/s	> 64 µM	> 64 µM	> 64 µM	–
CCN(Cc1ccccc1)S(=O)(=O)c1cc(OC)ccc1OC [DNDI0003365407]	25	> 64 µM	534 µL/min/mg	3500 µL/min/mg	–	> 64 µM	11.9 ×10⁻⁶ cm/s	2.51 µM	2.53 µM	27.4 µM	–
CCC(Cc1ccccc1)Sc1nc(C)cc(C)c1C#N (stereo not shown) [DNDI0003297457]	15	40.3 µM	2010 µL/min/mg	1900 µL/min/mg	5.4	> 64 µM	0.19 ×10⁻⁶ cm/s	2.63 µM	2.64 µM	6.9 µM	–
CCN(Cc1ccccc1)S(=O)(=O)c1ccc(NC(C)=O)cc1 [DNDI0003364473]	1	> 64 µM	205 µL/min/mg	398 µL/min/mg	3.5	> 64 µM	13.6 ×10⁻⁶ cm/s	> 64 µM	> 64 µM	33.1 µM	–
CC[C@H](Cc1ccccc1)[S+]([O-])c1ccccc1OC (stereo partly shown) [DNDI0003362001]	1	> 64 µM	390 µL/min/mg	3620 µL/min/mg	3.7	> 64 µM	9.42 ×10⁻⁶ cm/s	52.5 µM	52.5 µM	31.5 µM	–
CCN(Cc1ccccc1)S(=O)(=O)c1ccccc1OC [DNDI0003363820]	6	> 64 µM	406 µL/min/mg	1370 µL/min/mg	3.6	36.3 µM	18.5 ×10⁻⁶ cm/s	11 µM	11 µM	30.1 µM	–
CCN(Cc1ccccc1)S(=O)(=O)c1cc(F)ccc1N1CCCC1 [DNDI0003364614]	4	50.8 µM	1470 µL/min/mg	3000 µL/min/mg	4.9	> 64 µM	0.34 ×10⁻⁶ cm/s	12.9 µM	12.9 µM	7.33 µM	–
COCCN(Cc1ccccc1)S(=O)(=O)c1ccccc1 [DNDI0003363821]	2	> 64 µM	239 µL/min/mg	2990 µL/min/mg	3.5	> 64 µM	25.3 ×10⁻⁶ cm/s	40.7 µM	40.5 µM	39.3 µM	–
CCN(Cc1ccccc1)S(=O)(=O)c1ccccc1 [DNDI0003363563]	1	> 64 µM	418 µL/min/mg	1180 µL/min/mg	3.8	> 64 µM	7.54 ×10⁻⁶ cm/s	> 64 µM	> 64 µM	32.1 µM	–
COc1ccc(Cl)cc1S(=O)(=O)N(CCO)Cc1ccccc1 [DNDI0003366068]	2	> 64 µM	180 µL/min/mg	–	3.5	> 64 µM	20.1 ×10⁻⁶ cm/s	37.2 µM	37.5 µM	26.8 µM	–
CCN(Cc1ccccc1)S(=O)(=O)c1cc(Cl)ccc1OC [DNDI0003364251]	12	> 64 µM	304 µL/min/mg	1260 µL/min/mg	4.3	53.2 µM	3.74 ×10⁻⁶ cm/s	5.5 µM	5.52 µM	9.1 µM	–
CCN(Cc1ccccc1)S(=O)(=O)c1ccc(OC)cc1 [DNDI0003297130]	6	> 64 µM	676 µL/min/mg	3010 µL/min/mg	3.9	> 64 µM	7.68 ×10⁻⁶ cm/s	11 µM	11 µM	18.5 µM	–
O=S(=O)(NCc1ccccc1)c1cc(F)ccc1F [DNDI0003365406]	1	> 64 µM	75 µL/min/mg	260 µL/min/mg	3.2	> 64 µM	30.4 ×10⁻⁶ cm/s	49 µM	49.4 µM	> 64 µM	–
CCN(Cc1ccccc1)S(=O)(=O)c1ccc(C)cc1 [DNDI0003297129]	1	> 64 µM	1740 µL/min/mg	–	4.1	> 64 µM	5.38 ×10⁻⁶ cm/s	49 µM	49.4 µM	28.8 µM	–
COc1ccc(OC)c(S(=O)(=O)NCc2ccccc2)c1 [DNDI0003365408]	1	> 64 µM	126 µL/min/mg	1250 µL/min/mg	2.8	> 64 µM	16.8 ×10⁻⁶ cm/s	> 64 µM	> 64 µM	> 64 µM	–
COc1cc2c(cc1S(=O)(=O)N(Cc1ccccc1)Cc1ccccc1)S(=O)(=O)NCN2 [DNDI0003425513]	–	–	–	–	–	22.9 µM	–	2.51 µM	–	–	IC50 [10]: > 64 µM; microsomal CLint at 0.5 μM ([3]; pH 7.4, HLM CLint (uL/min/mg)): 100 µL/min/mg; microsomal CLint at 0.5 μM ([4]; pH 7.4, MLM CLint (uL/min/mg)): 249 µL/min/mg; chromatographic logD ([5]; experimental): 3.6; CC50 at 120 h [11]: > 64 µM; CC50 [12]: 21.9 µM; CC50 [13]: > 64 µM; Papp [14]: 0.38 ×10⁻⁶ cm/s; IC50 [8, 19]: 2.53 µM; IC50 [15]: 48.3 µM; IC50 [9, 20]: 9.44 µM
O=S(=O)(NCc1ccccc1)c1ccccc1 [DNDI0003363562]	1	> 64 µM	50 µL/min/mg	161 µL/min/mg	2.9	> 64 µM	21.6 ×10⁻⁶ cm/s	> 64 µM	> 64 µM	> 64 µM	–
COCCN(Cc1ccccc1)S(=O)(=O)c1ccccc1OC(F)(F)F [DNDI0003392130]	–	–	–	–	–	> 64 µM	–	8.32 µM	–	–	IC50 [10]: > 64 µM; microsomal CLint at 0.5 μM ([3]; pH 7.4, HLM CLint (uL/min/mg)): 194 µL/min/mg; microsomal CLint at 0.5 μM ([4]; pH 7.4, MLM CLint (uL/min/mg)): 222 µL/min/mg; chromatographic logD ([5]; experimental): 3.8; CC50 at 120 h [11]: > 64 µM; CC50 [12]: 45.1 µM; CC50 [13]: > 64 µM; Papp [14]: 5.26 ×10⁻⁶ cm/s; IC50 [8, 19]: 8.27 µM; IC50 [15]: 31.2 µM; IC50 [9, 20]: 17.8 µM
